target: T1, TYK2 (Homo sapiens, UniProt P29597); assay: TYK2 MSD degradation in OCI-LY10 cells; assay type: cell-based; settings: OCI-LY10 cells, 4 to 24 hours incubation
T1 construct: Degradation of TYK2 in cells was quantitatively measured using Meso Scale Discovery (MSD) technology; endogenous in cells; host or cells: OCI-LY10
How it was run: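 OCI-LY10 cells were treated with 9-dose 1:3 series (top 1 to 10 μM final) for 4 to 24 hours at 37° C. Lysate TYK2 quantified by MSD sandwich immunoassay; DC50 and Dmax from four-parameter inhibitor vs. response fit.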

T1 sequence (P29597 whole entry): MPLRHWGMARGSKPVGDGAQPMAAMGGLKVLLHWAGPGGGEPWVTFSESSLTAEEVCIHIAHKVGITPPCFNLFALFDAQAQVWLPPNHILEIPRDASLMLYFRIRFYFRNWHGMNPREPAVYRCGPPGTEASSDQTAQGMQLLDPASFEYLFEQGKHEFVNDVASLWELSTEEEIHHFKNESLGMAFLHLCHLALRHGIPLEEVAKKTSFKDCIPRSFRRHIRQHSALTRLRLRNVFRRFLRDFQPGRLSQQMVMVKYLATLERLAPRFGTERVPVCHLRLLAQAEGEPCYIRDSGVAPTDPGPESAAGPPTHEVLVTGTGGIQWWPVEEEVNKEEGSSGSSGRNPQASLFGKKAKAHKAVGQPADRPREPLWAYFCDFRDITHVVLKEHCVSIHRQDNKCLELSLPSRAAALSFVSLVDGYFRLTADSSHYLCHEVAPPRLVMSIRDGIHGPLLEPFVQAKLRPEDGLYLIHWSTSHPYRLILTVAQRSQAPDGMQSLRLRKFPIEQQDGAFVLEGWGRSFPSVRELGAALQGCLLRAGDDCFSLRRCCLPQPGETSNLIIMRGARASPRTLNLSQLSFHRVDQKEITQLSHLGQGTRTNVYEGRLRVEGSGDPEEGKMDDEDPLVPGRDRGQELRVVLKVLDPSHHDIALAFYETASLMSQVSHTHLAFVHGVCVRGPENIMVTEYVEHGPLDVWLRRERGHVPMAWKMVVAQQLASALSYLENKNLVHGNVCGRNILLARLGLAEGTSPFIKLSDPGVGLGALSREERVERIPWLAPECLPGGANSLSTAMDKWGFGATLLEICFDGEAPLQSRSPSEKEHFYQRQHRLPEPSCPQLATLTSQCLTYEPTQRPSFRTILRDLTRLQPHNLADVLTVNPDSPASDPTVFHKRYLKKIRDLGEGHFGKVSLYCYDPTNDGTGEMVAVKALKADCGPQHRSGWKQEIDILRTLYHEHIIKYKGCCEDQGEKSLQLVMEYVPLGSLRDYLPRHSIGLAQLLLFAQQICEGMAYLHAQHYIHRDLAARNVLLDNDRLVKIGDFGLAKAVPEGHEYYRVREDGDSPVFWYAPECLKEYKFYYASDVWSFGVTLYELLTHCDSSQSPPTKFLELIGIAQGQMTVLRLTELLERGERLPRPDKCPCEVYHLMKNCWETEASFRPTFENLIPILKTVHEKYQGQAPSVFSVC

Compound | TYK2 MSD OCI-LY10 Dmax %
CNc1cc(N2CCc3c(-c4ccc(CN5CC6(CCN(C(=O)c7cc(N8CCC(=O)NC8=O)c(C)cn7)CC6)C5)cn4)cccc32)nn2c(C(=O)N[C@@H]3C[C@@H]3F)cnc12 [I-782] | A (A (>90%))
CNc1cc(N2CCc3c(CN4CCC(N5CCC6(CCN(C(=O)c7cc(C)c(OC)c(N8CCC(=O)NC8=O)c7)CC6)CC5)C(F)(F)C4)cccc32)nn2c(C(=O)N[C@@H]3C[C@@H]3F)cnc12 (stereo partly drawn) [I-749] | B (B (90 to >75%))
CNc1cc(N2CCc3c(C#CCN4CCC(N5CC6(CCN(C(=O)c7ccc(Cl)c(N8CCC(=O)NC8=O)c7)CC6)C5)C(F)(F)C4)cccc32)nn2c(C(=O)N[C@@H]3C[C@@H]3F)cnc12 (stereo partly drawn) [I-701] | A (A (>90%))
CNc1cc(N2CCc3c(-c4ccc(CN5CCC6(CCN(C(=O)c7cc(F)c(Cl)c(N8CCC(=O)NC8=O)c7)CC6)C(F)(F)C5)cn4)cccc32)nn2c(C(=O)N[C@@H]3C[C@@H]3F)cnc12 [I-656] | B (B (90 to >75%))
CNc1cc(N2CCc3c(CN4CCC(N5CCC6(CCN(C(=O)c7cc(Cl)c(C)c(N8CCC(=O)NC8=O)c7)CC6)CC5)C(F)(F)C4)cccc32)nn2c(C(=O)N[C@@H]3C[C@@H]3F)cnc12 (stereo partly drawn) [I-711] | B (B (90 to >75%))
CNc1cc(N2CCc3c(-c4ncc(CN5CC6(CCN(C(=O)c7cc(C)c(Cl)c(N8CCC(=O)NC8=O)c7)CC6(F)F)C5)cc4Cl)cccc32)nn2c(C(=O)N[C@@H]3C[C@@H]3F)cnc12 [I-747] | B (B (90 to >75%))
CNc1cc(N2CCc3c(N4CC(CN5CCC(N6CCN(C(=O)c7ccc(Cl)c(N8CCC(=O)NC8=O)c7)CC6)C(F)(F)C5)C4)cccc32)nn2c(C(=O)N[C@@H]3C[C@@H]3F)cnc12 (stereo partly drawn) [I-781] | D (D (<50%))
CNc1cc(N2CCc3c(C#CCN4CCC(N5CCC6(CCN(C(=O)c7ccc(Cl)c(N8CCC(=O)NC8=O)c7)CC6)CC5)C(F)(F)C4)cccc32)nn2c(C(=O)N[C@@H]3C[C@@H]3F)cnc12 (stereo partly drawn) [I-700] | B (B (90 to >75%))

same assay, conditions: OCI-LY10 cells, 4 to 24 hours incubation, read-out: TYK2 MSD OCI-LY10 Rel-DC50

Compound | DC50 [nM]
CNc1cc(N2CCc3c(-c4ccc(CN5CC6(CCN(C(=O)c7cc(N8CCC(=O)NC8=O)c(C)cn7)CC6)C5)cn4)cccc32)nn2c(C(=O)N[C@@H]3C[C@@H]3F)cnc12 [I-782] | < 1
CNc1cc(N2CCc3c(CN4CCC(N5CCC6(CCN(C(=O)c7cc(C)c(OC)c(N8CCC(=O)NC8=O)c7)CC6)CC5)C(F)(F)C4)cccc32)nn2c(C(=O)N[C@@H]3C[C@@H]3F)cnc12 (stereo partly drawn) [I-749] | < 10
CNc1cc(N2CCc3c(C#CCN4CCC(N5CC6(CCN(C(=O)c7ccc(Cl)c(N8CCC(=O)NC8=O)c7)CC6)C5)C(F)(F)C4)cccc32)nn2c(C(=O)N[C@@H]3C[C@@H]3F)cnc12 (stereo partly drawn) [I-701] | < 1
CNc1cc(N2CCc3c(-c4ccc(CN5CCC6(CCN(C(=O)c7cc(F)c(Cl)c(N8CCC(=O)NC8=O)c7)CC6)C(F)(F)C5)cn4)cccc32)nn2c(C(=O)N[C@@H]3C[C@@H]3F)cnc12 [I-656] | < 1
CNc1cc(N2CCc3c(CN4CCC(N5CCC6(CCN(C(=O)c7cc(Cl)c(C)c(N8CCC(=O)NC8=O)c7)CC6)CC5)C(F)(F)C4)cccc32)nn2c(C(=O)N[C@@H]3C[C@@H]3F)cnc12 (stereo partly drawn) [I-711] | < 10
CNc1cc(N2CCc3c(-c4ncc(CN5CC6(CCN(C(=O)c7cc(C)c(Cl)c(N8CCC(=O)NC8=O)c7)CC6(F)F)C5)cc4Cl)cccc32)nn2c(C(=O)N[C@@H]3C[C@@H]3F)cnc12 [I-747] | < 10
CNc1cc(N2CCc3c(N4CC(CN5CCC(N6CCN(C(=O)c7ccc(Cl)c(N8CCC(=O)NC8=O)c7)CC6)C(F)(F)C5)C4)cccc32)nn2c(C(=O)N[C@@H]3C[C@@H]3F)cnc12 (stereo partly drawn) [I-781] | > 100
CNc1cc(N2CCc3c(C#CCN4CCC(N5CCC6(CCN(C(=O)c7ccc(Cl)c(N8CCC(=O)NC8=O)c7)CC6)CC5)C(F)(F)C4)cccc32)nn2c(C(=O)N[C@@H]3C[C@@H]3F)cnc12 (stereo partly drawn) [I-700] | < 1

same assay, conditions: TYK2 degradation in OCI-LY10 cells, 4 to 24 hours incubation

Compound | TYK2 MSD OCI-LY10 Dmax %
CNc1cc(N2CCc3c(-c4ccc(CN5CC6(CCN(C(=O)c7cc(C)c(C)c(N8CCC(=O)NC8=O)c7)CC6(F)F)C5)cn4)cccc32)nn2c(C(=O)N[C@@H]3C[C@@H]3F)cnc12 [I-796] | A (A (>90%))
CNc1cc(N2CCc3c(-c4ncc(CN5CC6(CCN(C(=O)c7cc(OC)c(C)c(N8CCC(=O)NC8=O)c7)CC6(F)F)C5)cc4F)cccc32)nn2c(C(=O)N[C@@H]3CC[C@H]3OC)cnc12 [I-1137] | A (A (>90%))
CNc1cc(N2CCc3c(-c4ncc(CN5CC6(CCN(C(=O)c7cc(C)c(Cl)c(N8CCC(=O)NC8=O)c7)CC6(F)F)C5)cc4F)cccc32)nn2c(C(=O)NC3CCC3)cnc12 [I-991] | B (B (90 to >75%))
CNc1cc(N2CCc3c(-c4ccc(CC5CC6(CCN(C(c7ccc(Cl)c(N8CCC(=O)NC8=O)c7)C(F)(F)F)CC6)C5)cn4)cccc32)nn2c(C(=O)N[C@@H]3C[C@@H]3F)cnc12 (stereo partly drawn) [I-272] | D (D (<50%))
CNc1cc(N2CCc3c(-c4ccc(CN5CC6(CCN(C(=O)c7ccc(Cl)c(N8CCC(=O)NC8=O)c7)CC6)C5)cc4)cccc32)nn2c(C(=O)N[C@@H]3C[C@@H]3F)cnc12 [I-73] | C (C (75 to 50%))
CNc1cc(N2CCc3c(-c4ncc(CN5CC6(CCN(C(=O)c7cc(N8CCC(=O)NC8=O)c(C)cc7F)CC6(F)F)C5)cc4F)cccc32)nn2c(C(=O)NC3CCC3OC)cnc12 (stereo not drawn) [I-1007] | A (A (>90%))
CCNC(=O)c1nnc(Nc2ccc(CN3CC4(CCN(c5cccc6c5n(C)c(=O)n6C5CCC(=O)NC5=O)CC4(F)F)C3)cn2)cc1Nc1cccc(F)c1OC (stereo not drawn) [I-92] | C (C (75 to 50%))
CNc1cc(N2CCc3c(-c4ccc(N5CCC6(CCN(Cc7ccc(N8CCC(=O)NC8=O)c(Cl)c7)CC6)CC5)cn4)cccc32)nn2c(C(=O)N[C@@H]3C[C@@H]3F)cnc12 [I-870] | C (C (75 to 50%))
CNc1cc(N2CCc3c(-c4ccc(CN5CC6(CCN(C(=O)c7ccc(Cl)c(N8CCC(=O)NC8=O)c7)CC6(F)F)C5)cn4)cc(OC)cc32)nn2c(C(=O)N[C@@H]3C[C@@H]3F)cnc12 [I-859] | B (B (90 to >75%))
CNc1cc(N2CCc3c(-c4ccc(CN5CCC(N6CCC7(CCN(c8cccc9c8n(C)c(=O)n9C8CCC(=O)NC8=O)CC7)CC6)C(F)(F)C5)cn4)cccc32)nn2c(C(=O)N[C@@H]3C[C@@H]3F)cnc12 (stereo partly drawn) [I-281] | C (C (75 to 50%))

same assay, conditions: TYK2 degradation in OCI-LY10 cells, 4 to 24 hours incubation, read-out: TYK2 MSD OCI-LY10 Rel-DC50

Compound | DC50 [nM]
CNc1cc(N2CCc3c(-c4ccc(CN5CC6(CCN(C(=O)c7cc(C)c(C)c(N8CCC(=O)NC8=O)c7)CC6(F)F)C5)cn4)cccc32)nn2c(C(=O)N[C@@H]3C[C@@H]3F)cnc12 [I-796] | < 1
CNc1cc(N2CCc3c(-c4ncc(CN5CC6(CCN(C(=O)c7cc(OC)c(C)c(N8CCC(=O)NC8=O)c7)CC6(F)F)C5)cc4F)cccc32)nn2c(C(=O)N[C@@H]3CC[C@H]3OC)cnc12 [I-1137] | < 1
CNc1cc(N2CCc3c(-c4ncc(CN5CC6(CCN(C(=O)c7cc(C)c(Cl)c(N8CCC(=O)NC8=O)c7)CC6(F)F)C5)cc4F)cccc32)nn2c(C(=O)NC3CCC3)cnc12 [I-991] | < 10
CNc1cc(N2CCc3c(-c4ccc(CC5CC6(CCN(C(c7ccc(Cl)c(N8CCC(=O)NC8=O)c7)C(F)(F)F)CC6)C5)cn4)cccc32)nn2c(C(=O)N[C@@H]3C[C@@H]3F)cnc12 (stereo partly drawn) [I-272] | > 100
CNc1cc(N2CCc3c(-c4ccc(CN5CC6(CCN(C(=O)c7ccc(Cl)c(N8CCC(=O)NC8=O)c7)CC6)C5)cc4)cccc32)nn2c(C(=O)N[C@@H]3C[C@@H]3F)cnc12 [I-73] | < 10
CNc1cc(N2CCc3c(-c4ncc(CN5CC6(CCN(C(=O)c7cc(N8CCC(=O)NC8=O)c(C)cc7F)CC6(F)F)C5)cc4F)cccc32)nn2c(C(=O)NC3CCC3OC)cnc12 (stereo not drawn) [I-1007] | < 1
CCNC(=O)c1nnc(Nc2ccc(CN3CC4(CCN(c5cccc6c5n(C)c(=O)n6C5CCC(=O)NC5=O)CC4(F)F)C3)cn2)cc1Nc1cccc(F)c1OC (stereo not drawn) [I-92] | 10 to 100
CNc1cc(N2CCc3c(-c4ccc(N5CCC6(CCN(Cc7ccc(N8CCC(=O)NC8=O)c(Cl)c7)CC6)CC5)cn4)cccc32)nn2c(C(=O)N[C@@H]3C[C@@H]3F)cnc12 [I-870] | 10 to 100
CNc1cc(N2CCc3c(-c4ccc(CN5CC6(CCN(C(=O)c7ccc(Cl)c(N8CCC(=O)NC8=O)c7)CC6(F)F)C5)cn4)cc(OC)cc32)nn2c(C(=O)N[C@@H]3C[C@@H]3F)cnc12 [I-859] | < 10
CNc1cc(N2CCc3c(-c4ccc(CN5CCC(N6CCC7(CCN(c8cccc9c8n(C)c(=O)n9C8CCC(=O)NC8=O)CC7)CC6)C(F)(F)C5)cn4)cccc32)nn2c(C(=O)N[C@@H]3C[C@@H]3F)cnc12 (stereo partly drawn) [I-281] | < 10

— patent US20260125400A1, “TYK2 DEGRADERS AND USES THEREOF” (Kymera Therapeutics, Inc., priority 2023, published 2026)
